Test results from US8586582B2, “PI3K/mTOR kinase inhibitors” (Xcovery Holding Company, LLC, priority 2008, dated 2013).

Molecular target: T1, mTOR kinase (Homo sapiens, UniProt P42345)
T1 construct: purchased Invitrogen Corp. (Madison, Wis., USA)
Test: Z'-LYTE biochemical assay for mTOR (Invitrogen)
Method: The Z′-LYTE® biochemical assay for mTOR
The mTOR kinase activity was assessed using the Z′-LYTE® biochemical assay of Invitrogen Corp. (Madison, Wis., USA).

T1 sequence (P42345 1360-2549 limits assumed): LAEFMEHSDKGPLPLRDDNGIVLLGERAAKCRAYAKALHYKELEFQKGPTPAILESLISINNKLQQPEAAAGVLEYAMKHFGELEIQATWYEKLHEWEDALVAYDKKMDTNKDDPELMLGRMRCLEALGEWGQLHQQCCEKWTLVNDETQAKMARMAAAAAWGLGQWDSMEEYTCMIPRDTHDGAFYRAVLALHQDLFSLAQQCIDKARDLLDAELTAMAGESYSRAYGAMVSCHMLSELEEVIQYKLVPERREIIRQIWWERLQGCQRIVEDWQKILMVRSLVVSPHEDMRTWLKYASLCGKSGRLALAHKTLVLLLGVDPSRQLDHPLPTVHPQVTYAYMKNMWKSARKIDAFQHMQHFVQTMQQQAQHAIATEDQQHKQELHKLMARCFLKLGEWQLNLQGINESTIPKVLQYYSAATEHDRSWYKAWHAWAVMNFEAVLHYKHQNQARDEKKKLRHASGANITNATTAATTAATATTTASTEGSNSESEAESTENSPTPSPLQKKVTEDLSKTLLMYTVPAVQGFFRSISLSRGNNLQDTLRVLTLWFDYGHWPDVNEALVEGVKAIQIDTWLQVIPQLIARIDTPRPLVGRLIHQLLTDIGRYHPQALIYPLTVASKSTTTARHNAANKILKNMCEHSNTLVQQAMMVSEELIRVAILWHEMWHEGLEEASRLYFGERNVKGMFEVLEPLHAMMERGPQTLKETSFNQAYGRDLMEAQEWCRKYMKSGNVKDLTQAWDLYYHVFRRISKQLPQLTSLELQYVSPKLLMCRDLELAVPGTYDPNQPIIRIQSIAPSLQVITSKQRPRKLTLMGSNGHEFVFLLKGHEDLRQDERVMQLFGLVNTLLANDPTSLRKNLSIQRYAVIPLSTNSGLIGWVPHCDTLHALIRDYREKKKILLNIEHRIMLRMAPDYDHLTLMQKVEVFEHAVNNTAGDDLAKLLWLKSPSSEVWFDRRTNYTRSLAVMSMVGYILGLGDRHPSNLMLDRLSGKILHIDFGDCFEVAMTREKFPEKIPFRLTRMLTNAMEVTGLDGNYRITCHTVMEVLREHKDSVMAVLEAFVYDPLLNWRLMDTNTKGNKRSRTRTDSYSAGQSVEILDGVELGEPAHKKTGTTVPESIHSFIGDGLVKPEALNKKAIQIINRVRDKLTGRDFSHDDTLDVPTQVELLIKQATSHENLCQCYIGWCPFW

Row | IC50 | SMILES
1 | < 1000 nM | Nc1ncc(-c2nc(N3CCOCC3)nc3c2cnn3C2CCOCC2)cn1 [Example 1, 5-(1-(2H-3,4,5,6-tetrahydropyran-4-yl)-6-morpholin-4-ylpyrazolo[4,5-e]pyrimidin-4-yl)pyrimidine-2-ylamine]
2 | < 1000 nM | CN1CCN(C(=O)N2CCC(n3ncc4c(-c5cnc(N)nc5)nc(N5CCOCC5)nc43)CC2)CC1 [Example 4, 4-[4-(2-aminopyrimidin-5-yl)-6-morpholin-4-ylpyrazolo[5,4-d]pyrimidinyl]piperidyl 4-methylpiperazinyl ketone]
